From PubChem BioAssay (NCI)
“And” between values parts separate entries of the source, which are not always exact repeats. Identical values can stand only once.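 These data come from cells grown in 96-well plates and exposed to compound for 48 hours at five concentrations. Here, GI50 denotes the concentration required for 50% inhibition of growth. TGI denotes the concentration required for complete inhibition of growth.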

Experiments:
Experiment in all cases: NCI tumour cell line growth inhibition, 48 h
NCI-H23 lung = system: NCI-H23 lung
SK-MEL-28 melanoma = system: SK-MEL-28 melanoma
HCC-2998 colon = system: HCC-2998 colon
HS 578T breast = system: HS 578T breast
M14 melanoma = system: M14 melanoma
SF-295 CNS = system: SF-295 CNS
HCT-15 colon = system: HCT-15 colon
P388 leukemia = system: P388 leukemia
P388/ADR leukemia = system: P388/ADR leukemia
SN12K1 renal = system: SN12K1 renal
SR leukemia = system: SR leukemia
LXFL 529 NSCLC = system: LXFL 529 NSCLC

Structure (SMILES)	GI50 (NCI-H23 lung) [µM]	TGI (NCI-H23 lung)	GI50 (SK-MEL-28 melanoma) [µM]	TGI (SK-MEL-28 melanoma)	GI50 (HCC-2998 colon) [µM]	TGI (HCC-2998 colon) [µM]	GI50 (HS 578T breast) [µM]	TGI (HS 578T breast) [µM]	GI50 (M14 melanoma) [µM]	TGI (M14 melanoma) [µM]	GI50 (SF-295 CNS) [µM]	TGI (SF-295 CNS)	GI50 (HCT-15 colon) [µM]	TGI (HCT-15 colon)	TGI (P388 leukemia) [µM]	TGI (P388/ADR leukemia) [µM]	TGI (SN12K1 renal)	TGI (SR leukemia) [µM]	TGI (LXFL 529 NSCLC) [µM]
Cn1cc(-c2nc(-c3c[nH]c4ccncc34)cs2)c2cc(F)ccc21	1.72	3.25 µM	1.63	3.04 µM	1.64	3.08	2.21	4.74	1.79	3.37	1.64	3.02 µM	1.33	2.71 µM					
C=CC[N+](CCO)(CCO)CCCCCCCCCCCCCCCCCC		44.9 µM		28 µM		10.6						21.5 µM		41.4 µM	1.21	> 49	20.5 µM		
COc1ccc(/C(Cl)=C(\C=O)c2ccccc2)cc1OC		> 100 µM				> 100				> 100		55.1 µM		> 100 µM				> 100	55.1
C=C1C(=O)O[C@@H]2OC3(C)CCC4C(C)CCC1C42OO3 (stereo partly specified)	7.77	22 µM and 17.5 µM		25.1 µM and 23.9 µM		25.9					11.7	25.1 µM and 13.4 µM	2.3	9.95 µM and 4.02 µM		1.2	15.6 µM and 15.1 µM		
N/C(=N\N=C\c1cc2c(cc1Cl)OCO2)NO		> 100 µM		> 100 µM		97.8						74.8 µM		> 100 µM	> 91.9	> 81.3	> 100 µM		
O=C1OC(c2ccc(Cl)cc2)(c2ccc(Cl)cc2)c2c1ccc1ccccc21		> 100 µM		> 100 µM		> 100						> 100 µM		> 100 µM					> 100
C[C@H](CN1CC(=O)NC(=O)C1)N1CC(=O)NC(=O)C1		> 100 µM		> 100 µM		> 100						> 100 µM		> 100 µM		> 96.4	> 100 µM		
Nc1nn(CC(O)CO)c(=O)s1 (stereo unspecified)		> 100 µM		9.86 µM		> 100				> 100		> 100 µM		> 100 µM				> 100	> 100
CCOC(=O)C1=NN(c2ccc(Cl)cc2)C2=CC(C)=NN(C)C(=S)N21		> 100 µM		> 100 µM		> 100		> 100		> 100		> 100 µM		> 100 µM				> 100	
COc1ccc(/C=N/n2cnc3c(c2=O)S/C(=C2/SC(=S)N(c4ccc(C)cc4)C2=O)N3c2ccccc2)cc1				> 100 µM		> 100				> 100		38.1 µM		> 100 µM				> 100	> 100
C[C@H](N)C(=O)N[C@@H]1[C@H]2C(=C(O)C[C@@H](O)[C@@H]2O)C(=O)O[C@@H]1C		> 100 µM		> 100 µM		> 100						> 100 µM		> 100 µM	> 100	> 100	> 100 µM		
